Results: BigSolDB 2.1

CCn1c2ccccc2c2cc(-n3nncc3-c3ccccc3)ccc21
solubility (mole fraction)
Conditions | 278.15 K | 283.15 K | 288.15 K | 293.15 K | 298.15 K | 303.15 K | 308.15 K | 313.15 K | 318.15 K | 323.15 K
in acetonitrile | 0.00173 | 0.0022 | 0.00272 | 0.00336 | 0.00412 | 0.00505 | 0.00609 | 0.00733 | 0.00897 | 0.011
in ethanol | 0.000446 | 0.000546 | 0.000674 | 0.00084 | 0.00102 | 0.00124 | 0.00151 | 0.00183 | 0.0022 | 0.00262
in isopropanol | 0.000211 | 0.000278 | 0.000371 | 0.000491 | 0.000639 | 0.000825 | 0.00105 | 0.00135 | 0.00174 | 0.00224
in n-propanol | 0.000523 | 0.000671 | 0.000837 | 0.00103 | 0.0013 | 0.00161 | 0.002 | 0.00246 | 0.00297 | 0.00357
in water | 5.79e-07 | 7.99e-07 | 1.08e-06 | 1.46e-06 | 1.96e-06 | 2.61e-06 | 3.4e-06 | 4.49e-06 | 5.81e-06 | 7.48e-06
